# Where two headings read alike, the source gives them in different places.
# Legend:
# in vitro = details: human, uninfected MT-4 cells
# HIV-1 (IIIB) = experiment: microbe, parasite or virus in culture; assay type: cell-based; details: Human immunodeficiency virus 1, IIIB, MT4, 120 h, HIV-1 (IIIB) in MT-4 cells, 5 days incubation, Cell Titer Glo; read-out: MT4 EC50
# Method: Compounds were tested in a high-throughput 384-well assay format for their ability to inhibit the replication of HIV-1 (IIIB) in MT-4 cells. Compounds were serially diluted (1:3) in DMSO on 384-well polypropylene plates and further diluted 200-fold into complete RPMI media (10% FBS, 1% P/S) using the Biotek Micro Flow and Labcyte ECHO acoustic dispenser. Each plate contained up to 8 test compounds, with negative (No Drug Control) and 5 μM AZT positive controls. MT-4 cells were pre-infected with 10 μL of either RPMI (mock-infected) or a fresh 1:250 dilution of HIV-1 IIIB concentrated virus stock. Infected and uninfected MT-4 cells were further diluted in complete RPMI media and added to each plate using a Micro Flow dispenser. After 5 days incubation in a humidified and temperature controlled incubator (37° C.), Cell Titer Glo (Promega) was added to the assay plates and chemiluminescence read using an Envision plate-reader.
# pLAI reporter virus = experiment: microbe, parasite or virus in culture; assay type: cell-based, HIV; details: Human immunodeficiency virus 1, MT4, 72 h
SMILES,CC50 at 5 days (in vitro),EC50 (HIV-1 (IIIB)),EC50 (pLAI reporter virus; read-out: RLUC 50% HS EC50),EC50 (pLAI reporter virus; read-out: RLUC CCM EC50)
"CC1=N[C@]2(CC[C@H](C)N3C[C@H]2n2cc(C(=O)NCc4ccc(F)cc4F)c(=O)c(O)c2C3=O)ON1C [Example 149b, (3′S,5R,7′R)—N-(2,4-difluorobenzyl)-12′-hydroxy-2,3,3′-trimethyl-1′,11′-dioxo-1′,4′,5′,11′-tetrahydro-2H,3′H,7′H-spiro[[1,2,4]oxadiazole-5,6′-[2,7]methanopyrido[1,2-a][1,4]diazonine]-10′-carboxamide]",39100 nM,1.4 nM,5.7 nM,0.4 nM
"[2H]C([2H])([2H])OC1=NO[C@@]2(CC[C@H](C)N3C[C@H]2n2cc(C(=O)NCc4ccc(F)cc4F)c(=O)c(O)c2C3=O)C1 [Example 153, (3′S,5S,7′R)—N-(2,4-difluorobenzyl)-12′-hydroxy-3-(methoxy-d3)-3′-methyl-1′,11′-dioxo-1′,4′,5′,11′-tetrahydro-3′H,4H,7′H-spiro[isoxazole-5,6′-[2,7]methanopyrido[1,2-a][1,4]diazonine]-10′-carboxamide]",17600 nM,0.9 nM,16.1 nM,0.2 nM
"C[C@H]1CC[C@]2(CC(S(C)(=O)=O)=NO2)[C@H]2CN1C(=O)c1c(O)c(=O)c(C(=O)NCc3c(F)cc(F)cc3F)cn12 [Example 154, (3′S,5S,7′R)-12′-hydroxy-3′-methyl-3-(methylsulfonyl)-1′,11′-dioxo-N-(2,4,6-trifluorobenzyl)-1′,4′,5′,11′-tetrahydro-3′H,4H,7′H-spiro[isoxazole-5,6′-[2,7]methanopyrido[1,2-a][1,4]diazonine]-10′-carboxamide]",4140 nM,4.2 nM,22.1 nM,1.2 nM
"CC1=NO[C@@]2(CC[C@H](CF)N3C[C@H]2n2cc(C(=O)NCc4ccc(F)cc4F)c(=O)c(O)c2C3=O)C1 [Example 155, (3′R,5S,7′R)—N-(2,4-difluorobenzyl)-3′-(fluoromethyl)-12′-hydroxy-3-methyl-1′,11′-dioxo-1′,4′,5′,11′-tetrahydro-3′H,4H,7′H-spiro[isoxazole-5,6′-[2,7]methanopyrido[1,2-a][1,4]diazonine]-10′-carboxamide]",28400 nM,1 nM,59.8 nM,0.5 nM
"C[C@H]1CC[C@]2(CC(=O)NO2)[C@H]2CN1C(=O)c1c(O)c(=O)c(C(=O)NCc3ccc(F)cc3F)cn12 [Example 156, (3′S,5S,7′R)—N-(2,4-difluorobenzyl)-12′-hydroxy-3′-methyl-1′,3,11′-trioxo-1′,4′,5′,11′-tetrahydro-3′H,7′H-spiro[isoxazolidine-5,6′-[2,7]methanopyrido[1,2-a][1,4]diazonine]-10′-carboxamide]",≥ 50000 nM,18.1 nM,79.8 nM,25 nM
"CCN1O[C@@]2(CC[C@H](C)N3C[C@H]2n2cc(C(=O)NCc4c(F)cc(F)cc4F)c(=O)c(O)c2C3=O)CC1=O [Example 157, (3′S,5S,7′R)-2-ethyl-12′-hydroxy-3′-methyl-1′,3,11′-trioxo-N-(2,4,6-trifluorobenzyl)-1′,4′,5′,11′-tetrahydro-3′H,7′H-spiro[isoxazolidine-5,6′-[2,7]methanopyrido[1,2-a][1,4]diazonine]-10′-carboxamide]",≥ 50000 nM,1.1 nM,4.1 nM,0.3 nM
"C[C@H]1CC[C@]2(CC(=O)N(Cc3ccc(Br)cc3)O2)[C@H]2CN1C(=O)c1c(O)c(=O)c(C(=O)NCc3c(F)cc(F)cc3F)cn12 [Example 158, (3′S,5S,7′R)-2-(4-bromobenzyl)-12′-hydroxy-3′-methyl-1′,3,11′-trioxo-N-(2,4,6-trifluorobenzyl)-1′,4′,5′,11′-tetrahydro-3′H,7′H-spiro[isoxazolidine-5,6′-[2,7]methanopyrido[1,2-a][1,4]diazonine]-10′-carboxamide]",2120 nM,1.7 nM,3.2 nM,0.8 nM
"C[C@H]1CC[C@]2(CC(=O)N(Cc3ccccn3)O2)[C@H]2CN1C(=O)c1c(O)c(=O)c(C(=O)NCc3c(F)cc(F)cc3F)cn12 [Example 159, (3′S,5S,7′R)-12′-hydroxy-3′-methyl-1′,3,11′-trioxo-2-(pyridin-2-ylmethyl)-N-(2,4,6-trifluorobenzyl)-1′,4′,5′,11′-tetrahydro-3′H,7′H-spiro[isoxazolidine-5,6′-[2,7]methanopyrido[1,2-a][1,4]diazonine]-10′-carboxamide]",≥ 50000 nM,1.8 nM,1.1 nM,0.8 nM
"C[C@H]1CC[C@]2(CC(=O)N(Cc3cccnc3)O2)[C@H]2CN1C(=O)c1c(O)c(=O)c(C(=O)NCc3c(F)cc(F)cc3F)cn12 [Example 160, (3′S,5S,7′R)-12′-hydroxy-3′-methyl-1′,3,11′-trioxo-2-(pyridin-3-ylmethyl)-N-(2,4,6-trifluorobenzyl)-1′,4′,5′,11′-tetrahydro-3′H,7′H-spiro[isoxazolidine-5,6′-[2,7]methanopyrido[1,2-a][1,4]diazonine]-10′-carboxamide]",≥ 50000 nM,1.5 nM,0.5 nM,1.6 nM
"C[C@H]1CC[C@]2(CC(=O)N(Cc3nc4ccccc4s3)O2)[C@H]2CN1C(=O)c1c(O)c(=O)c(C(=O)NCc3c(F)cc(F)cc3F)cn12 [Example 161, (3′S,5S,7′R)-2-(benzo[d]thiazol-2-ylmethyl)-12′-hydroxy-3′-methyl-1′,3,11′-trioxo-N-(2,4,6-trifluorobenzyl)-1′,4′,5′,11′-tetrahydro-3′H,7′H-spiro[isoxazolidine-5,6′-[2,7]methanopyrido[1,2-a][1,4]diazonine]-10′-carboxamide]",≥ 50000 nM,1.4 nM,0.9 nM,0.4 nM
"C[C@H]1CC[C@]2(CC(=O)N(Cc3nc4ccccc4[nH]3)O2)[C@H]2CN1C(=O)c1c(O)c(=O)c(C(=O)NCc3c(F)cc(F)cc3F)cn12 [Example 162, (3′S,5S,7′R)-2-((1H-benzo[d]imidazol-2-yl)methyl)-12′-hydroxy-3′-methyl-1′,3,11′-trioxo-N-(2,4,6-trifluorobenzyl)-1′,4′,5′,11′-tetrahydro-3′H,7′H-spiro[isoxazolidine-5,6′-[2,7]methanopyrido[1,2-a][1,4]diazonine]-10′-carboxamide]",≥ 50000 nM,3.6 nM,5.7 nM,1.4 nM
"C[C@H]1CC[C@]2(CC(=O)N(Cc3nc4ccccc4n3C)O2)[C@H]2CN1C(=O)c1c(O)c(=O)c(C(=O)NCc3c(F)cc(F)cc3F)cn12 [Example 163, (3′S,5S,7′R)-12′-hydroxy-3′-methyl-2-((1-methyl-1H-benzo[d]imidazol-2-yl)methyl)-1′,3,11′-trioxo-N-(2,4,6-trifluorobenzyl)-1′,4′,5′,11′-tetrahydro-3′H,7′H-spiro[isoxazolidine-5,6′-[2,7]methanopyrido[1,2-a][1,4]diazonine]-10′-carboxamide]",≥ 50000 nM,1.5 nM,2 nM,0.9 nM
"C[C@H]1CC[C@]2(CO2)[C@H]2CN1C(=O)c1c(O)c(=O)c(C(=O)NCc3c(F)cc(F)cc3F)cn12 [Example 165, (2R,3′S,7′R)-12′-hydroxy-3′-methyl-1′,11′-dioxo-N-(2,4,6-trifluorobenzyl)-1′,4′,5′,11′-tetrahydro-3′H,7′H-spiro[oxirane-2,6′-[2,7]methanopyrido[1,2-a][1,4]diazonine]-10′-carboxamide]",6590 nM,1.4 nM,5.4 nM,0.3 nM
"C[C@H]1CC[C@@]2(CO2)[C@H]2CN1C(=O)c1c(O)c(=O)c(C(=O)NCc3c(F)cc(F)cc3F)cn12 [Example 166, (2S,3′S,7′R)-12′-hydroxy-3′-methyl-1′,11′-dioxo-N-(2,4,6-trifluorobenzyl)-1′,4′,5′,11′-tetrahydro-3′H,7′H-spiro[oxirane-2,6′-[2,7]methanopyrido[1,2-a][1,4]diazonine]-10′-carboxamide]",4600 nM,0.9 nM,1.3 nM,0.2 nM
"COC[C@H]1CO[C@]2(CC[C@H](C)N3C[C@H]2n2cc(C(=O)NCc4c(F)cc(F)cc4F)c(=O)c(O)c2C3=O)O1 [Example 167, (2R,3′S,4S,7′R)-12′-hydroxy-4-(methoxymethyl)-3′-methyl-1′,11′-dioxo-N-(2,4,6-trifluorobenzyl)-1′,4′,5′,11′-tetrahydro-3′H,7′H-spiro[[1,3]dioxolane-2,6′-[2,7]methanopyrido[1,2-a][1,4]diazonine]-10′-carboxamide]",35800 nM,1.7 nM,8.7 nM,0.6 nM
